These results are taken from patent publication US20220273752A1, “MODULATION OF DENDRITIC CELL FUNCTION BY THE PHOSPHOLIPID MESSENGER LPA” (Cornell University, priority 2019, published 2022).

Test [1] deals with ID8-based ovarian cancer cells (Enpp2 sgRNA or control sgRNA). Kind of test: Host survival of mice bearing autotaxin-deficient (Enpp2 sgRNA) or control sgRNA ID8-based ovarian cancer. In kind it is in vivo, mouse. Particulars: for host survival in mice bearing autotaxin-deficient ovarian cancer: Enpp2 sgRNA tumors, compared with all other experimental groups. An excerpt: FIG. 17A-17C illustrate host survival and disease progression in mice bearing autotaxin-deficient ovarian cancer (Enpp2 sgRNA) and treated with the TLR3 agonist Poly(1:C). FIG. 17A schematically illustrates the experimental scheme and treatment regimen. FIG. 17B graphically illustrates the survival of the indicated groups when treated as described in FIG. 17A. […] FIG. 17C graphically illustrates ascites accumulation over time of the groups of animals treated as described in FIG. 17A. ****P<0.0001.
FIG. 18A-18C illustrate that blockade of the type-I IFN receptor 1 (IFNAR1) abrogates the therapeutic effects Poly-(I:C) in mice bearing autotaxin-deficient ovarian tumors. FIG. 18A schematically illustrates the experimental scheme and treatment regimen employed. FIG. 18B graphically illustrates the percent survival for the groups described in FIG. 18A. […] FIG. 18C graphically illustrates ascites accumulation over time of the groups of animals treated as described in FIG. 18A. ***P<0.0005, ****P<0.0001.
FIG. 19A-19C illustrate the effects of the PARP inhibitor Talazoparib in mice bearing autotaxin-deficient ovarian cancer cells. FIG. 19A schematically illustrates the experimental scheme and treatment regimen employed. FIG. 19B graphically illustrates the percent survival for the groups described in FIG. 19A. […] FIG. 19C graphically illustrates ascites accumulation over time of the groups of animals treated as described in FIG. 19A. **P<0.001, ***P<0.0005, ****P<0.0001.
To define the in vivo relevance of the findings related to type-I IFN expression, the inventors abrogated the gene encoding the LPA-generating enzyme autotaxin (Enpp2) in ID8-based ovarian cancer cells lines using CRISPR-Cas9.
Based on these key findings, experiments were then performed to determine whether treatment with the TLR3 agonist Poly(I:C), which can enhance type-I IFN immune responses, could increase survival in mice bearing autotaxin-deficient ovarian tumors.
To determine whether these effects are really mediated by enhanced type-I IFN signaling, mice were treated with anti-IFNAR1 blocking antibodies. […]

For test [2], the system named is PERK in human monocyte-derived DCs. Briefly: RT-qPCR gene expression in human monocyte-derived DCs treated with LPA and TM, with or without PERK inhibitor. Format: cell-based. Particulars: LPA 100 μM and TM 1 μg/ml, 6 hours; RT-qPCR relative to ACTB. The method, then: Monocyte-derived DCs were generated from peripheral human blood and cells were treated for 6 hours with LPA (100 μM), TM (1 μg/ml) or the combination of both, in the presence or absence of the PERK inhibitor AMG PERK 44. Gene expression was subsequently determined by RT-qPCR relative to endogenous ACTB in each sample. FIG. 6A graphically illustrates expression of the PERK-dependent ER stress response gene DDIT3 in monocyte-derived DCs with or without treatment by AMG PERK 44. FIG. 6B graphically illustrates expression of IL6 in monocyte-derived DCs with or without treatment by AMG PERK 44. FIG. 6C graphically illustrates expression of IL1B in monocyte-derived DCs with or without treatment by AMG PERK 44. FIG. 6D graphically illustrates expression of PTGS2 in monocyte-derived DCs with or without treatment by AMG PERK 44. FIG. 6E graphically illustrates expression of VEGFA in monocyte-derived DCs with or without treatment by AMG PERK 44.
(§1) The structure of AMG PERK 44 is shown below as a HCl salt.
Background: Quantitative PCR measures a nucleic acid by following its amplification.

The subject of the next test is PERK in murine DCs. Briefly: PERK inhibitor in murine DCs in vitro (data not shown). In kind it is cell-based.
From the text: as §1

For test [3], the system named is tumor-associated dendritic cells (tDCs). Briefly: Ex vivo treatment of ovarian cancer ascites, gene expression in tumor-associated DCs. In kind it is cell-based, mouse. The settings on record: ascites incubated ex vivo with 200 nM or 1000 nM, DCs isolated 24 h later; relative to Actb. An excerpt: FIG. 7A-7B illustrate that conditional PERK deletion in CD11c^+ immune cells (Perk^f/f Cd11c-Cre) delays metastatic ovarian cancer progression. FIG. 7A illustrates survival of female mice of the indicated genotypes (n=8/group) that were intraperitoneally challenged with parental ID8 ovarian cancer cells and host survival was monitored over time. *P<0.05. ****P<0.0001. n=8/group. FIG. 7B graphically illustrates survival of female mice of the indicated genotypes (n=8/group) that were intraperitoneally challenged with variant ovarian cancer cells that are highly aggressive and overexpress VEGFA and Defb29 (ID8-Defb29/Vegf-A). Host survival was monitored over time. *P<0.05. ****P<0.0001. n=8/group. FIG. 8A-8D graphically illustrate expression of LPA/ER stress-induced tumorigenic and immunomodulatory genes by tumor-associated dendritic cells (tDCs) present in ovarian cancer ascites can be diminished using a small-molecule inhibitor targeting autotaxin.

For test [4], the system named is ovarian cancer cells that overexpress VEGFA and Defb29 (ID8-Defb29/Vegf-A). Kind of test: Anti-tumor efficacy (host survival) in mice bearing ID8-Defb29/Vegf-A ovarian cancer. In kind it is in vivo, mouse. The settings on record: mice bearing metastatic ovarian cancer. An excerpt: FIG. 9A is a schematic diagram illustrating the treatment of female mice that were intraperitoneally injected with ID8 ovarian cancer cells overexpressing VEGFA and Def29b. FIG. 9B graphically illustrates host survival as monitored over time of the mice treated as described for FIG. 9A. ***P<0.001. ****P<0.0001.
FIG. 20A schematically illustrates the experimental scheme and treatment regimen employed.
FIG. 20B graphically illustrates the percent survival for the groups described in FIG. 20A. […] FIG. 20C graphically illustrates ascites accumulation over time of the groups of animals treated as described in FIG. 20A. **P<0.001, ***P<0.001. ****P<0.0001.
Consequently, production of this bioactive lipid mediator limits the effects of immunotherapies such as Poly-(I:C) treatment, and of novel chemotherapeutic interventions such as PARP inhibitors. Targeting the autotaxin-LPA pathway may therefore be beneficial to control ovarian cancer progression and unleash protective anti-tumor immune responses that extend host survival. […] Therefore, our findings indicate that autotaxin inhibitors could be repurposed to maximize the efficacy of PARP inhibitors and awaken protective type-I IFN responses in ovarian cancer patients.
Methods similar to those described above were used to evaluate the anti-tumor effects of various autotaxin and LPA receptor inhibitors. The inhibitors were administered to mice that had received ovarian cancer cells that overexpress VEGFA and Defb29 (ID8-Defb29/Vegf-A).

For the compound Poly(I:C), the “host survival in mice bearing autotaxin-deficient ovarian cancer” value in test [1] is “remarkable increase in survival”. Besides, the “host survival, treatment alone” value in test [1] (mice bearing control sgRNA ovarian cancer) was “extended host survival”.

As to `Cn1ncnc1[C@H]1c2n[nH]c(=O)c3cc(F)cc(c23)N[C@@H]1c1ccc(F)cc1` [Talazoparib], the “host survival in mice bearing autotaxin-deficient ovarian cancer” value in test [1] is “significant increase in host survival”.

Take `Cc1ccc2cc(-c3c(C)ccc(C(=O)c4c(-c5ccccc5)n(C)n(-c5ccccc5)c4=O)c3N)ccc2n1` [AMG PERK 44]: in test [2], the “induction of pro-tumoral factors (IL6, IL1B, PTGS2, VEGFA) in LPA-exposed human DCs undergoing ER stress” value was “prevents induction of pro-tumoral factors”. The “effect compared with PERK deletion in murine DCs” value with PERK in murine DCs is on record as “recapitulate the effects of PERK deletion”.

On to `CCc1nc2c(C)cc(N3CCN(CC(=O)N4CC(O)C4)CC3)cn2c1N(C)c1nc(-c2ccc(F)cc2)c(C#N)s1` [GLPG1690], for which the “expression of LPA/ER stress-induced Il1b, Il6, Ptgs2 and Vegf-α in tumor-associated DCs” value in test [3] is reported as “decreased the expression”. The “host survival, single treatment” value in test [4] (single agent) was “modestly extended host survival”. Further, in test [4] (with PARP inhibitor Talazoparib (FIG. 20)), the “host survival, combined with Talazoparib” value is recorded as “significantly improved the therapeutic effects of Talazoparib”. Further, in test [4] (with chemotherapy (FIG. 9)), the “host survival, combined with chemotherapy” value is recorded as “significantly enhanced the effects of chemotherapy”.
